Reference: publication PMC6023986, “Interactions Between Emodin and Efflux Transporters on Rat Enterocyte by a Validated Ussing Chamber Technique” (Frontiers in Pharmacology, 2018)
Where two headings read alike, the source gives them in different places. Blank lines part the entries; values can stand above or below the compound they belong to.

Key:
[1] = test system: Caco-2 cell; design: method as in Yu et al. (2017); settings: Caco-2 cell culture model; ref Yu et al. (2017); cited from earlier work
[2] = Absorption characteristics of emodin in rat intestinal segments (Ussing chamber)
Description: (§1) The four intestinal segments including duodenum, jejunum, ileum, and colon from anesthetized rats were immediately removed by surgery and washed with KRB solution. Each section of the intestinal segments was then placed in cold (on ice), bubbled (O2:CO2 95:5) KRB buffer. The four intestinal segments were then cut into 2 cm pieces, respectively, and serosas were removed by blunt dissection. Peyer’s patches were excluded from the experiment by visually identified. The stripped tissues were mounted in chambers with exposed surface area of 0.49 cm^2. Temperature of the chambers was maintained at 37 ± 0.5°C. Each of the half-cells in the chambers was filled with 5 mL fresh KRB buffer (pH 6.5). Tissue viability was continuously controlled by potential difference (PD). Tissue with electrical values less than 2 mV was refused ([Moazed and Hiebert, 2007]; [Heinen et al., 2013]).
In this study, the effects of the three efflux transporters on emodin intestinal absorption were investigated. Meanwhile, the influence of emodin on intestinal P-gp, MRP2, and MRP3 functions were also discussed. Solutions with three concentrations (low, middle, and high) of emodin were filled in the mucosal or serosal compartment to measure the bidirectional transport characteristic. […] In the emodin impact experiments, digoxin, pravastatin, and teniposide were employed as P-gp, MRP2, and MRP3 substrates. Changes of the bidirectional transport characteristic were measured before and after adding emodin to the mucosal side. […]
(§2) The quantifications of the compounds were performed by the TSQ Quantum Ultra Triple Quadrupole LC-MS/MS system from Thermo Fisher Scientific. […]
(§3) The Q (accumulative quantity), Papp (apparent permeability), Er (efflux ratio), Pr (Papp ratio), and Err (Er ratio) across the excited rat intestinal segments in the Ussing chamber were calculated using the following equations ([Li et al., 2012]; [Huang et al., 2016]): […]

[3] = test system: P-gp; experiment: Emodin transport in jejunum in the presence of P-gp inhibitor verapamil (Ussing chamber); settings: rat jejunum, emodin 9.25 μM, verapamil 220 μM on mucosal side
Description: as §1, with “Tissue viability was continuously controlled by potential difference (PD). Tissue with electrical values less than 2 mV was refused ([Moazed and Hiebert, 2007]; [Heinen et al., 2013]).” left out
(§4) In this study, the effects of the three efflux transporters on emodin intestinal absorption were investigated. […] Changes of the bidirectional transport characteristic were measured before and after adding emodin to the mucosal side. […]
as §2, §3

[4] = target: MRP2 (Rattus norvegicus, UniProt Q63120); experiment: Emodin transport in jejunum in the presence of MRP2 inhibitor MK571 (Ussing chamber); settings: MK571 186 μM on mucosal side
Description: as §1, with “Tissue viability was continuously controlled by potential difference (PD). Tissue with electrical values less than 2 mV was refused ([Moazed and Hiebert, 2007]; [Heinen et al., 2013]).” left out
as §4, §2, §3

[5] = target: T1, MRP3 (Rattus norvegicus, UniProt O88563); experiment: Emodin transport in jejunum in the presence of MRP3 inhibitor benzbromarone (Ussing chamber); type: in vitro ADME
T1 construct: intestinal segments including duodenum, jejunum, ileum, and colon from anesthetized rats were immediately removed by surgery; from tissue; host or cells: stripped rat intestine (jejunum and ileum in validation; jejunum for the emodin studies)
Description: as §1, with “Tissue viability was continuously controlled by potential difference (PD). Tissue with electrical values less than 2 mV was refused ([Moazed and Hiebert, 2007]; [Heinen et al., 2013]).” left out
as §4, §2, §3

[6] = test system: P-gp; experiment: Influence of emodin on P-gp function: digoxin bidirectional transport in the presence of emodin (Ussing chamber); type: in vitro ADME; settings: rat jejunum, emodin 185, 370, 740 μM, digoxin as substrate
Description: as §1
(§5) In this study, the effects of the three efflux transporters on emodin intestinal absorption were investigated. Meanwhile, the influence of emodin on intestinal P-gp, MRP2, and MRP3 functions were also discussed. Solutions with three concentrations (low, middle, and high) of emodin were filled in the mucosal or serosal compartment to measure the bidirectional transport characteristic. […] In the emodin impact experiments, digoxin, pravastatin, and teniposide were employed as P-gp, MRP2, and MRP3 substrates. Changes of the bidirectional transport characteristic were measured before and after adding emodin to the mucosal side.
(§6) Frozen samples were adequately vortexed after thawing at the room temperature; 10 μL suitable IS solution was added to 200 μL samples; 200 μL methanol was added after a thorough vortex mixing for 30 s. The mixtures were then vortexed for 30 s and centrifuged at 15,000 rpm for 30 min. Finally, 5 μL of supernatant was injected into the LC-MS/MS system.
(§7) The quantifications of the compounds were performed by the TSQ Quantum Ultra Triple Quadrupole LC-MS/MS system from Thermo Fisher Scientific. Chromatography was carried out using an Agilent Poroshell 120 SB-C18 (2.7 μm, 2.1 mm × 100 mm) column with a Phenomenex AFO-8497 C18 pre-column, operating at 30°C. Adaptive gradient elution methods were applied for the analytes. The flow rate of the mobile phase was kept at 0.2 mL min^-1. Flow was directed to the ion spray interface. All measurements were carried out in negative ESI mode. Ion spray voltage was -2500 V. Vaporizer and capillary temperatures were set at 250 and 350°C, respectively. Auto sampler temperature was set at 10°C. Sheath gas and aux gas were set at 30 and 15 Arb, respectively. […] Peak integrations and calibrations were carried out using LC Quan 2.5.2 software from Thermo Fisher Scientific.
as §3
(§8) where Cn (nM) is the concentration of the drug at the time point (n), Q (nM) is the accumulated absorption amount, A is the exposed surface area of the intestine (0.49 cm^2), dQ/dt (nM⋅s^-1) is the amount of the drug transported, and C0 (nM) is the initial concentration of the test drug. Experiments were performed in batches, so control groups were set as one for each batch.

[7] = target: T1, MRP3; experiment: Influence of emodin on MRP3 function: teniposide bidirectional transport in the presence of emodin (Ussing chamber); type: in vitro ADME; settings: rat jejunum; for Papp at 60 μM: rat
Description: as §1, §5, §6, §7, §3, §8

[8] = test system: P-glycoprotein (P-gp); design: method as in Teng et al., 2007, 2012; Liu et al., 2012; settings: ref Teng et al., 2007, 2012, Liu et al.; cited from earlier work
[9] = test system: multidrug-resistant associated protein 2 (MRP2); design: method as in Teng et al., 2007, 2012; Liu et al., 2012; settings: ref Teng et al., 2007, 2012, Liu et al.; cited from earlier work
[10] = target: T1, MRP3; experiment: Ussing chamber bidirectional transport, model validation for MRP3 (teniposide substrate, benzbromarone inhibitor); type: in vitro ADME; settings: rat
Description: as §1
Digoxin, pravastatin, and teniposide were employed as the test substrates of P-gp, MRP2, and MRP3. […] The experiments were started after 30 min equilibration time, by changing the KRB buffer on both sides; 5 mL KRB solution with different test compounds was filled in the mucosal or serosal compartment; meanwhile, equal volume fresh buffer was added to the other compartment. […] The bidirectional transport studies with specific inhibitors were assessed to validate this model whether or not suitable for P-gp, MRP2, and MRP3 studies. Samples were stored at –80°C until analysis ([Deusser et al., 2013]).
as §6, §7, §3, §8

[11] = design: method as in Di et al. (2015); settings: ref Di et al. (2015); cited from earlier work

T1 sequence (O88563 whole entry): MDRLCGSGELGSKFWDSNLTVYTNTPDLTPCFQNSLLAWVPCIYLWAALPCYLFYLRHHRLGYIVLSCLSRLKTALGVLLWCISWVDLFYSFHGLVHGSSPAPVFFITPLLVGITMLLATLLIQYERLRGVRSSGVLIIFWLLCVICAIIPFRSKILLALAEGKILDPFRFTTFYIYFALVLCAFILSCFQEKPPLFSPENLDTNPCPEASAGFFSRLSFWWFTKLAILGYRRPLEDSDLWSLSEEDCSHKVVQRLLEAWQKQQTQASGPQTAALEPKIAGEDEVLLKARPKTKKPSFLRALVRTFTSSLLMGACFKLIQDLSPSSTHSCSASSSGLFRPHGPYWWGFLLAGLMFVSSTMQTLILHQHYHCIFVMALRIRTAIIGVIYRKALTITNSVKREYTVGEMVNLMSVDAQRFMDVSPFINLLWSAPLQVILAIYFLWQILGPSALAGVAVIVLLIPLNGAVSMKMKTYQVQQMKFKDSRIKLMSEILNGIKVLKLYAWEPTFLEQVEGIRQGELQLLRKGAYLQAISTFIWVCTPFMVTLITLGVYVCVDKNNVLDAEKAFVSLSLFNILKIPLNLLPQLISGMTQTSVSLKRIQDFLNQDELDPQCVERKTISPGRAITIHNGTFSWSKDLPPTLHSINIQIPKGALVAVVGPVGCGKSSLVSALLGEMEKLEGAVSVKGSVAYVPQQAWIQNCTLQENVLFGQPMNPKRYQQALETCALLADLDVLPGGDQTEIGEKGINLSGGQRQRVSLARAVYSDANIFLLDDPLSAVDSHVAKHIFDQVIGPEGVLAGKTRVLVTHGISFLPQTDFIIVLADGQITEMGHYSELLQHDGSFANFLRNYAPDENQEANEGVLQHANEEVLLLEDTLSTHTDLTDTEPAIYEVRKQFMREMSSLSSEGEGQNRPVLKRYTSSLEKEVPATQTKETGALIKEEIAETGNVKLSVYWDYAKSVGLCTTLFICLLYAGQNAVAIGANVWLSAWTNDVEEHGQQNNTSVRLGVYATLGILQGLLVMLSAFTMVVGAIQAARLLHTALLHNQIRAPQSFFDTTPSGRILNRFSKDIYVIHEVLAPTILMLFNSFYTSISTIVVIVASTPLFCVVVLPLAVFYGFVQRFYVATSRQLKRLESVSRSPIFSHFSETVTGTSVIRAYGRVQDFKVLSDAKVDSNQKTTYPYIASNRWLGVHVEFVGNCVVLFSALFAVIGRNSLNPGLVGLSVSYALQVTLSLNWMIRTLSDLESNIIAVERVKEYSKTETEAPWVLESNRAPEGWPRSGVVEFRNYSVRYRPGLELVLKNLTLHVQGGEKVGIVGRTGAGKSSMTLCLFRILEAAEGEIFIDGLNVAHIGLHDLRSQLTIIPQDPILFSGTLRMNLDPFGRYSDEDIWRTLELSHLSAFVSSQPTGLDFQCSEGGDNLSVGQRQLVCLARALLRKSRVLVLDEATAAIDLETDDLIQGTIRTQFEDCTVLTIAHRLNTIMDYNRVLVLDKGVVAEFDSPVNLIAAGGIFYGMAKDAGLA
MRP2, sequence (Q63120 whole entry, the tested form may be a part): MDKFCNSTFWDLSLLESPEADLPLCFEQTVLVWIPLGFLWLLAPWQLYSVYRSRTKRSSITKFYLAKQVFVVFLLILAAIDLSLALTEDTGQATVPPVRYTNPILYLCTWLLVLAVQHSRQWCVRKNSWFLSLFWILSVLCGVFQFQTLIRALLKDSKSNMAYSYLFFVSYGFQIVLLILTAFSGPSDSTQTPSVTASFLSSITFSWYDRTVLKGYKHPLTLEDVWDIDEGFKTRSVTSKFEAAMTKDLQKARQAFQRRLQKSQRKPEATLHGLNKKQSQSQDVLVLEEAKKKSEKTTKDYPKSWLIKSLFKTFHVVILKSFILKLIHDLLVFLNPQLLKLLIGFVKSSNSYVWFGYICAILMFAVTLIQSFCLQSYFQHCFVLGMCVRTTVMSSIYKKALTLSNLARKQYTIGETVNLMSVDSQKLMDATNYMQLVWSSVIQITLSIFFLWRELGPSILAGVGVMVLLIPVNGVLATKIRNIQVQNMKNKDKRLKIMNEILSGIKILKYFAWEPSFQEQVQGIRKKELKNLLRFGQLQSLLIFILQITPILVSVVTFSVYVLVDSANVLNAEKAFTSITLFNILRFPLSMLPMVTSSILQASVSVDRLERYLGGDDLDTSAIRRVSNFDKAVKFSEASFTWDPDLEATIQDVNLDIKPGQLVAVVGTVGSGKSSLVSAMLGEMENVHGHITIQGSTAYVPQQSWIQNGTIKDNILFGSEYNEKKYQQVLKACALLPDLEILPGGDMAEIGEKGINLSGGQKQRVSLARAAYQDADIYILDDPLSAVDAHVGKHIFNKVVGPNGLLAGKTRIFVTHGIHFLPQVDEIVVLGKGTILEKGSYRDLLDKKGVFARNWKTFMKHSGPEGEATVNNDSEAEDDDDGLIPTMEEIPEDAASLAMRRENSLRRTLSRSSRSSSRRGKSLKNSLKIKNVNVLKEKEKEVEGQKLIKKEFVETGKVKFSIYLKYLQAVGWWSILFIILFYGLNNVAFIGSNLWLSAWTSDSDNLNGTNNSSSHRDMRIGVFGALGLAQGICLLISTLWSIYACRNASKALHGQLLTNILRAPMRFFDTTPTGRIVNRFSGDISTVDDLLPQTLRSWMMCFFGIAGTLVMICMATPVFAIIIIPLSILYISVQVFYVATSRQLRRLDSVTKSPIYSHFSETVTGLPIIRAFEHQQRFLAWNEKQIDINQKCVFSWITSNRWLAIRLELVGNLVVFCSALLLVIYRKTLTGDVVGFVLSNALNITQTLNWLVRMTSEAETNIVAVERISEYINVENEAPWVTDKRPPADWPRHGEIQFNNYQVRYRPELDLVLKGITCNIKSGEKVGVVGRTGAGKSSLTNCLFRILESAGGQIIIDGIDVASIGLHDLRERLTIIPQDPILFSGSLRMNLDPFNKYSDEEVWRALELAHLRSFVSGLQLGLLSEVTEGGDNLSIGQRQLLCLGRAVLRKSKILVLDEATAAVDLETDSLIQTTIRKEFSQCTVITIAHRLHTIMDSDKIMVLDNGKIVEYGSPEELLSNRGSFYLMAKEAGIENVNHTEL

Structure (SMILES): OC[C@H]1O[C@@H](Oc2c(O)cc(O)cc2C=Cc2ccc(O)cc2)[C@H](O)[C@@H](O)[C@@H]1O [2,3,5,4’-tetrahydroxystilbene-2-β-D-glucoside]
- Effect on emodin absorption [1]: could enhance

Structure (SMILES): Cc1cc(O)c2c(c1)C(=O)c1cc(O)cc(O)c1C2=O [Emodin, 1,3,8trihydroxy-6-methylanthraquinone]
- Regioselectivity of intestinal absorption rates ([2]; duodenum, jejunum, ileum, colon, 9.25, 18.5 and 37 μM): no regioselectivity
- Papp values from M-S ([2]; rat intestinal segments, lowest concentration (9.25 μM)): very low
- Er (efflux ratio) of emodin ([2]; rat jejunum, at all three concentrations 9.25, 18.5 and 37 μM): more than five
- Change of emodin absorption (M-S) with verapamil [3]: markedly increase
- Change of emodin efflux ratio with verapamil [3]: decrease
- Change of emodin Papp from mucosal to serosal side with MK571 [4]: significantly increased
- Change of emodin efflux ratio with MK571 [4]: decreased
- Substrate of MRP3 ([5]; Ussing chamber): might not be a substrate
- Change of emodin transport with benzbromarone ([5]; benzbromarone 470 μM on mucosal side): no significant differences
- Effect of emodin on P-gp function [6]: could enhance P-gp function
- Effect of emodin on MRP3 function ([7]; emodin 185, 370, 740 μM, teniposide as substrate): might be an MRP3 inhibitor
- Substrate of P-gp [8]: substrate
- Substrate of MRP2 [9]: substrate

- Papp ([10]; pH 6.5, rat colon, without inhibitor, read-out: Papp M-S, control): 16 ± 11.1 ×10⁻⁶ cm/s
- Papp ([10]; pH 6.5, rat colon, without inhibitor, read-out: Papp S-M, control): 21.3 ± 11.9 ×10⁻⁶ cm/s
- Papp ([10]; pH 6.5, rat ileum, without inhibitor, read-out: Papp M-S, control): 12.6 ± 7.7 ×10⁻⁶ cm/s
- Papp ([10]; pH 6.5, rat ileum, without inhibitor, read-out: Papp S-M, control): 24.5 ± 10 ×10⁻⁶ cm/s
- Papp ([10]; pH 6.5, rat jejunum, without inhibitor, read-out: Papp M-S, control): 14 ± 4.4 ×10⁻⁶ cm/s
- Papp ([10]; pH 6.5, rat jejunum, without inhibitor, read-out: Papp S-M, control): 33.5 ± 14 ×10⁻⁶ cm/s
- Papp ([10]; pH 6.5, with benzbromarone 470 μM, mucosal side, rat colon, with benzbromarone 470 μM on mucosal side, read-out: Papp M-S, with inhibitor): 28.3 ± 8.4 ×10⁻⁶ cm/s
- Papp ([10]; pH 6.5, with benzbromarone 470 μM, mucosal side, rat colon, with benzbromarone 470 μM on mucosal side, read-out: Papp S-M, with inhibitor): 8.3 ± 1.9 ×10⁻⁶ cm/s
- Papp ([10]; pH 6.5, with benzbromarone 470 μM, mucosal side, rat ileum, with benzbromarone 470 μM on mucosal side, read-out: Papp M-S, with inhibitor): 28 ± 19.5 ×10⁻⁶ cm/s
- Papp ([10]; pH 6.5, with benzbromarone 470 μM, mucosal side, rat ileum, with benzbromarone 470 μM on mucosal side, read-out: Papp S-M, with inhibitor): 10.3 ± 2.9 ×10⁻⁶ cm/s
- Papp ([10]; pH 6.5, with benzbromarone 470 μM, mucosal side, rat jejunum, with benzbromarone 470 μM on mucosal side, read-out: Papp M-S, with inhibitor): 37.2 ± 9.7 ×10⁻⁶ cm/s
- Papp ([10]; pH 6.5, with benzbromarone 470 μM, mucosal side, rat jejunum, with benzbromarone 470 μM on mucosal side, read-out: Papp S-M, with inhibitor): 13.1 ± 6.4 ×10⁻⁶ cm/s
- Change of Papp from S-M and Er of teniposide in the presence of emodin ([7]; teniposide 60 μM, emodin 185, 370, 740 μM): remarkably decreased
- Papp at 60 μM ([7]; pH 6.5, teniposide 60 μM, without emodin, read-out: Papp M-S, control): 69.4 ± 17.5 ×10⁻⁶ cm/s
- Papp at 60 μM ([7]; pH 6.5, teniposide 60 μM, without emodin, read-out: Papp S-M, control): 81.8 ± 15.9 ×10⁻⁶ cm/s
- Papp at 60 μM ([7]; pH 6.5, with emodin 185 μM on mucosal side, teniposide 60 μM, emodin 185 μM on mucosal side, read-out: Papp M-S in the presence of emodin): 63.2 ± 5.9 ×10⁻⁶ cm/s
- Papp at 60 μM ([7]; pH 6.5, with emodin 185 μM on mucosal side, teniposide 60 μM, emodin 185 μM on mucosal side, read-out: Papp S-M in the presence of emodin): 56.1 ± 5.7 ×10⁻⁶ cm/s
- Papp at 60 μM ([7]; pH 6.5, with emodin 370 μM on mucosal side, teniposide 60 μM, emodin 370 μM on mucosal side, read-out: Papp M-S in the presence of emodin): 52.5 ± 7.3 ×10⁻⁶ cm/s
- Papp at 60 μM ([7]; pH 6.5, with emodin 370 μM on mucosal side, teniposide 60 μM, emodin 370 μM on mucosal side, read-out: Papp S-M in the presence of emodin): 31.2 ± 13.2 ×10⁻⁶ cm/s
- Papp at 60 μM ([7]; pH 6.5, with emodin 740 μM on mucosal side, teniposide 60 μM, emodin 740 μM on mucosal side, read-out: Papp M-S in the presence of emodin): 91.1 ± 27.3 ×10⁻⁶ cm/s
- Papp at 60 μM ([7]; pH 6.5, with emodin 740 μM on mucosal side, teniposide 60 μM, emodin 740 μM on mucosal side, read-out: Papp S-M in the presence of emodin): 41.1 ± 6.2 ×10⁻⁶ cm/s
Structure (SMILES): COc1cc([C@@H]2c3cc4c(cc3[C@@H](O[C@@H]3O[C@@H]5CO[C@@H](c6cccs6)O[C@H]5[C@H](O)[C@H]3O)[C@H]3COC(=O)[C@H]23)OCO4)cc(OC)c1O [Teniposide]

Structure (SMILES): O=C(/C=C/C=C/c1ccc2c(c1)OCO2)N1CCCCC1 [piperine]
- Effect on glucuronidation metabolism of emodin [11]: inhibited
- Effect on in vivo bioavailability of emodin [11]: significantly improved
